Structures are written as SMILES. Some results are limits rather than exact numbers.

Data on 1 compound can be found in PMC11602157, “ZNF512B binds RBBP4 via a variant NuRD interaction motif and aggregates chromatin in a NuRD complex-independent manner” (Nucleic Acids Research, 2024).

The target of this test is T1, RBBP4 (Homo sapiens, UniProt Q09028).
T1 construct: Expression of recombinant RBBP4 protein was done as described ([32]); His-tag (inferred from His-Trap purification); made in house
T1 sequence (Q09028 whole entry): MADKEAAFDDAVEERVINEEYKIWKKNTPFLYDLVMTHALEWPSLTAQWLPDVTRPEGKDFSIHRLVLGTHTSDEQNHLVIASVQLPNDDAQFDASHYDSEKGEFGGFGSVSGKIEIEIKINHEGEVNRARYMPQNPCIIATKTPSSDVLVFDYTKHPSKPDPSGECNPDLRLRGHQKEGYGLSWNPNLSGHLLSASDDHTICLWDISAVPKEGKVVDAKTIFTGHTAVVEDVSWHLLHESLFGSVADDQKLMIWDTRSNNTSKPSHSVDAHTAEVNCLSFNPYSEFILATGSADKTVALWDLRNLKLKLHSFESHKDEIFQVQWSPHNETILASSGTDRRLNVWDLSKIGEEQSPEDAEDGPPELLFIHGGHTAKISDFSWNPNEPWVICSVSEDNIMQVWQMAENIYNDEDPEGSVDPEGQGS
Nature of the test: Competitive fluorescence polarization (displacement of FAM-labeled ZNF512B tracer). As to conditions: ratio of competitive ki, ZNF512B vs FOG-1. The format is binding. The protocol: Expression of recombinant RBBP4 protein was done as described ([32]). RBBP4 was purified by FPLC using the Äkta Start (Cytiva) via a His-Trap column (71502768) and subsequently a HiTRAP Q column (29051325) by standard procedures outlined in the instructions of the manufacturer. To determine the dissociation constant (kD), serial dilutions of RBBP4 protein (10–0 μM, 25 μl) in 50 mM Tris/Cl pH 7.5, 150 mM NaCl and 0.02% Triton™ X-100 were added to 25 μl of the fluorescently tagged tracer peptide for a finale volume of 50 μl with 1 nM tracer. The 384-well plate (GBO 781 900) was measured (Tecan Spark 20M) after 60 min and the kD values were calculated by converting the mP values into their corresponding anisotropy (A) values following the equation:
Hereby, A = anisotropy and P = polarization. These values were plotted versus the respective concentrations of the protein with a non-linear regression according to the following equation: […]
Hereby, A is the experimental anisotropy, Af is the anisotropy for the free ligand, Ab is the anisotropy for the fully bound ligand, LT is the total added concentration of ligand, kD is the equilibrium dissociation constant and RT is the total receptor concentration. […] Inhibition constant (ki) values were calculated using the following equation described previously by Wang et al. and the standard deviation was calculated for each ki value ([35]).
A general note: Polarisation of emitted light reports the rotation of a fluorescent probe.

With `CC(=O)N[C@@H](CCCCN)C(=O)N[C@@H](Cc1c[nH]cn1)C(=O)N[C@@H](CCCNC(=N)N)C(=O)N[C@@H](CCCNC(=N)N)C(=O)N[C@@H](CCCCN)C(=O)N[C@@H](CCC(N)=O)C(=O)N[C@@H](CCCCN)C(=O)N[C@H](C(=O)N1CCC[C@H]1C(=O)N[C@@H](CCCCN)C(=O)N[C@@H](CCCCN)C(=O)N[C@@H](Cc1ccccc1)C(N)=O)[C@@H](C)O` [ZNF512B-WT], the “higher affinity for RBBP4 than FOG-1” value is > 60 -fold.
